Type in all cases: cell-based
For experiment [1], the system named is Klebsiella pneumoniae (4 strains). Kind of experiment: MIC, broth microdilution, normal MH medium. Particulars: for MIC: Klebsiella pneumoniae, multi-drug resistant clinical isolates (KPC2), read-out: Antibacterial activity MIC, Klebsiella pneumoniae (4 strains); for times more effective than BAL30072 in inhibitory activity against Klebsiella pneumoniae: from MIC of Table 2. As for the experimental part: (§1) Supplier of the strains: all of the above strains were provided by Sichuan Primed Shines Bio-tech Co., Ltd. A single colony was isolated by streaking on agar plates for each strain prior to the experiment, and the cells freshly cultured at 37° C. overnight were appropriately diluted for the experiment.
(§2) Medium: MH liquid medium (OXOID).
(§3) Culture condition: cells were incubated at 35-37° C. for 16-18 h.
(§4) The broth microdilution method recommended by Clinical and Laboratory Standards Institute (CLSI), Performance Standards for Antimicrobial Susceptibility Testing; Twenty-Third Informational Supplement, M02-All, M07-A9 and M11-A8, 2013 was used to determine the MIC value of each test sample against each test strain in the normal MH medium and iron-deficient MH medium.
(§5) After diluting each sample to different concentrations with normal MH medium, 100 μl of each test sample solution at different concentrations was separately aspirated onto a 96-well sterile polystyrene plate. Drug solutions were added to the 1st to 10th well with the final concentrations of 16, 8, 4, 2, 1, 0.5, 0.25, 0.125, 0.06, and 0.03 mg/L in each well, respectively. The 11th well, as a blank control, was not added with drugs and bacteria. The 12th well, as a bacterial growth control, was added with bacteria but no drug.
The OD600 value was measured by a microplate reader, Minimal Inhibitory Concentration (MIC) of a drug is the lowest concentration of the drug which prevents growth of bacteria in the wells. 1.2.2 MIC in iron-deficient MH medium
(In general: In broth dilution the organism is exposed to a series of concentrations in liquid medium.)

Experiment [2] relates to Escherichia coli ATCC 35218. Description: MIC, broth microdilution, normal MH medium. To be noted: Escherichia coli, ATCC35218, quality control strain, read-out: Antibacterial activity MIC, Escherichia coli ATCC 35218. As for the experimental part:
(§6) Strain for quality control: Escherichia coli ATCC35218, purchased from National Center of Clinical Laboratory.
as §2, §3, §4, §5
(§7) The test bacterial liquid was adjusted to a bacterial suspension of 0.5 Mcfarland standard with physiological saline, and diluted with MH broth at 1:100, and then added to the drug solution so that a final concentration of the bacterial liquid was approximately 10^4 CFU/ml; 100 μl of the bacterial liquid was further added to each of the above wells (the total volume in each well is 200 μl), which was sealed and placed in a 35-37° C. incubator for 18-20 h for testing the result. The OD600 value was measured by a microplate reader, Minimal Inhibitory Concentration (MIC) of a drug is the lowest concentration of the drug which prevents growth of bacteria in the wells. 1.2.2 MIC in iron-deficient MH medium

Experiment [3] has as its system Escherichia coli (4 strains). Kind of experiment: MIC, broth microdilution, normal MH medium. To be noted: for MIC: Escherichia coli, clinical isolates (ESBLs), read-out: Antibacterial activity MIC, Escherichia coli (4 strains); for times more effective than BAL30072 in inhibitory activity against Escherichia coli: from MIC of Table 2. The protocol:
as §1, §2, §3, §4, §5, §7

Experiment [4] concerns Acinetobacter baumannii (4 strains). Kind of experiment: MIC, broth microdilution, normal MH medium. Particulars: Acinetobacter baumannii, read-out: Antibacterial activity MIC, Acinetobacter baumarmii (4 strains). The protocol:
as §1, §2, §3, §4, §5, §7

For experiment [5], the system named is Pseudomonas aeruginosa (4 strains). Kind of experiment: MIC, broth microdilution, normal MH medium. Particulars: Pseudomonas aeruginosa, multidrug-resistant clinical isolates (integrator I, IMP4), read-out: Antibacterial activity MIC, Pseudomonas aeruginosa (4 strains). As for the experimental part: as §1, §2, §3, §4, §5, §7
For experiment [6], the system named is Escherichia coli (4 strains). Description: MIC, broth microdilution, iron-deficient MH medium. To be noted: Escherichia coli; iron-deficient MH medium (16 mg/L 2,2'-bipyridine); clinical isolates (ESBLs); read-out: Antibacterial activity MIC, Escherichia coli (4 strains). The protocol:
as §1, §2, §3, §4
(§8) BPL was added to the normal MH medium to obtain a final concentration of 16 mg/L; According to the method in Section 1.2.1, 100 μl of each test sample solution at different concentrations was aspirated to the 1st to 10th well in a 96-well sterile polystyrene plate to obtain the final drug concentrations of 16, 8, 4, 2, 1, 0.5, 0.25, 0.125, 0.06, and 0.03 mg/L, respectively. Then, 100 μl of the test bacterial liquid was added to each well (200 μl per well), and the final concentration of the bacterial liquid was approximately 10^4 CFU/ml. After sealing, it was placed in a 35-37° C. incubator for 18-20 hours for testing the result. The OD600 value was measured by a microplate reader, Minimal Inhibitory Concentration (MIC) of a drug is the lowest concentration of the drug which prevents growth of bacteria in the wells.

The test system of experiment [7] is Acinetobacter baumannii (4 strains). Kind of experiment: MIC, broth microdilution, iron-deficient MH medium. To be noted: Acinetobacter baumannii; iron-deficient MH medium (16 mg/L 2,2'-bipyridine); multidrug-resistant clinical isolates (integron I, OXA23); read-out: Antibacterial activity MIC, Acinetobacter baumannii (4 strains). As for the experimental part: as §1, §2, §3, §4, §8

In experiment [8] the test system is Klebsiella pneumoniae (4 strains). Kind of experiment: MIC, broth microdilution, iron-deficient MH medium. Particulars: for MIC: Klebsiella pneumoniae, iron-deficient MH medium (16 mg/L 2,2'-bipyridine), multi-drug resistant clinical isolates (KPC2), read-out: Antibacterial activity MIC, Klebsiella pneumoniae (4 strains); for times more effective than BAL30072 in inhibitory activity against Klebsiella pneumonia: iron-deficient MH medium, from MIC of Table 3. The protocol: as §1, §2, §3, §4, §8

For experiment [9], the system named is Pseudomonas aeruginosa (4 strains). Kind of experiment: MIC, broth microdilution, iron-deficient MH medium. To be noted: Pseudomonas aeruginosa; iron-deficient MH medium (16 mg/L 2,2'-bipyridine); multidrug-resistant clinical isolates (integrator I, IMP4); read-out: Antibacterial activity MIC, Pseudomonas aeruginosa (4 strains). The protocol:
as §1, §2, §3, §4, §8

The subject of experiment [10] is Escherichia coli ATCC 35218. Description: MIC, broth microdilution, iron-deficient MH medium. To be noted: Escherichia coli, ATCC35218; iron-deficient MH medium (16 mg/L 2,2'-bipyridine); quality control strain; read-out: Antibacterial activity MIC, Escherichia coli ATCC 35218. As for the experimental part:
as §6, §2, §3, §4, §8

Molecules are shown by their SMILES. Structures can show the parent of a compound that is named as a salt.

Usually MIC stands for the smallest concentration in the dilution series that meets the test's criterion for growth inhibition. In the case of `CSCC(O/N=C(\C(=O)N[C@@H]1C(=O)N(OS(=O)(=O)O)C1(C)C)c1csc(N)n1)c1cc(=O)c(O)cn1O` (stereo partly drawn) [Compound 16, (3S)-3-((Z)-2-(2-aminothiazol-4-yl)-2-((1-(1,5-dihydroxy-4-oxo-1,4-dihydropyridin-2-yl)-2-(methylthio)ethoxy)imine)acetamido)-2,2-dimethyl-4-oxoazetidine-1-hydrogen sulfate], the MIC in experiment [1] is 0.5 to 1 µg/mL; in experiment [2], less than 0.03 µg/mL; in experiment [3], 0.125 to 0.5 µg/mL; in experiment [4], 1 to 2 µg/mL; in experiment [5] it was 0.25 to 2 µg/mL; in [6], 0.06 to 0.25 µg/mL. For the same compound, the minimum inhibitory concentration (MIC) in experiment [7] is 0.5 to 1 µg/mL; in experiment [8] it was 0.5 to 1 µg/mL; in [9], 0.125 to 1 µg/mL; in experiment [10], less than 0.03 µg/mL. Besides, the “times more effective than BAL30072 in inhibitory activity against Klebsiella pneumoniae” value in experiment [1] was 64-128 times. For the same compound, the “times more effective than BAL30072 in inhibitory activity against Escherichia coli” value in [3] was 2-8 times. The “times more effective than BAL30072 in inhibitory activity against Klebsiella pneumonia” value in [8] is 64-128 times.

Turning to `CC(O/N=C(\C(=O)N[C@@H]1C(=O)N(OS(=O)(=O)O)C1(C)C)c1nc(N)sc1Cl)c1cc(=O)c(O)cn1O` (stereo partly drawn) [Compound 22, (3S)-3-((Z)-2-(2-amino-5-chlorothiazol-4-yl)-2-((1-(1,5-dihydroxy-4-oxo-1,4-dihydropyridin-2-yl)ethoxyl)imine)acetamido)-2,2-dimethyl-4-oxoazetidine-1-hydrogen sulfate], the MIC was 1 µg/mL in experiment [1]; less than 0.03 µg/mL in [2]; 0.06 to 0.5 µg/mL in [3]; 2 µg/mL in experiment [4]; 0.5 to 2 µg/mL in experiment [5]; 0.06 to 0.25 µg/mL in experiment [6]. Also, the MIC in experiment [7] was 1 µg/mL; in experiment [8], 1 µg/mL; in [9] it was 0.5 to 1 µg/mL; in experiment [10] it was less than 0.03 µg/mL. Besides, in experiment [1], the “times more effective than BAL30072 in inhibitory activity against Klebsiella pneumoniae” value was found to be 64 times. Further, the “times more effective than BAL30072 in inhibitory activity against Escherichia coli” value in [3] is 4-16 times. Besides, in experiment [8], the “times more effective than BAL30072 in inhibitory activity against Klebsiella pneumonia” value came out at 64 times.

In the case of `CC(C)C(O/N=C(\C(=O)N[C@@H]1C(=O)N(OS(=O)(=O)O)C1(C)C)c1nc(N)sc1Cl)c1cc(=O)c(O)cn1O` (stereo partly drawn) [Compound 24, (3S)-3-((Z)-2-(2-amino-5-chlorothiazol-4-yl)-2-((1-(1,5-dihydroxy-4-oxo-1,4-dihydropyridin-2-yl)-2-methylpropoxy)imine)acetamido)-2,2-dimethyl-4-oxoazetidine-1-hydrogen sulfate], the minimal inhibitory concentration (MIC) in [6] was 0.06 to 0.25 µg/mL; in [7], 1 to 2 µg/mL; in [8], 0.125 to 0.5 µg/mL; in experiment [9] it was 0.25 to 2 µg/mL; in experiment [10], less than 0.03 µg/mL. Further, the “times more effective than BAL30072 in inhibitory activity against Klebsiella pneumonia” value in [8] is listed as 128-512 times.

For the compound `C[C@H](O/N=C(\C(=O)N[C@@H]1C(=O)N(OS(=O)(=O)O)C1(C)C)c1nc(N)sc1Cl)c1cc(=O)c(O)cn1O` [Compound 26, (S)-3-((Z)-2-(2-amino-5-chlorothiazol-4-yl)-2-(((S)-1-(1,5-dihydroxy-4-oxo-1,4-dihydropyridin-2-yl)ethoxy)imine)acetamido)-2,2-dimethyl-4-oxoazetidine-1-hydrogen sulfate], the minimal inhibitory concentration (MIC) in experiment [1] is 1 to 4 µg/mL; in [2] it was less than 0.03 µg/mL; in [3], 0.25 to 1 µg/mL; in [4], 1 µg/mL; in experiment [5], 0.5 to 1 µg/mL; in experiment [6], 0.03 to 0.25 µg/mL. Moreover, the minimal inhibitory concentration (MIC) in experiment [7] was 0.5 to 1 µg/mL; in [8], 0.5 to 4 µg/mL; in [9] it was 0.25 to 1 µg/mL; in [10] it was less than 0.03 µg/mL. Besides, the “times more effective than BAL30072 in inhibitory activity against Klebsiella pneumonia” value in [8] was 16-128 times.

For the compound `CC(C)[C@H](O/N=C(\C(=O)N[C@@H]1C(=O)N(OS(=O)(=O)O)C1(C)C)c1csc(N)n1)c1cc(=O)c(O)cn1O` [Compound 28, (3S)-3-((Z)-2-(2-aminothiazol-4-yl)-2-(((S)-1-(1,5-dihydroxy-4-oxo-1,4-Dihydropyridin-2-yl)-2-methylisopropyloxy)imine)acetamido)-2,2-dimethyl-4-oxoazetidine-1-hydrogen sulfate], the MIC in [6] is 0.125 to 0.25 µg/mL; in [7], 1 to 2 µg/mL; in experiment [8] it was 1 µg/mL; in experiment [9], 0.125 to 1 µg/mL; in experiment [10], less than 0.03 µg/mL. Besides, the “times more effective than BAL30072 in inhibitory activity against Klebsiella pneumonia” value in experiment [8] is on record as 64 times.

As to `CC(C)[C@H](O/N=C(\C(=O)N[C@@H]1C(=O)N(OS(=O)(=O)O)C1(C)C)c1nc(N)sc1Cl)c1cc(=O)c(O)cn1O` [Compound 29, (3S)-3-((Z)-2-(2-amino-5-chlorothiazol-4-yl)-2-(((S)-1-(1,5-dihydroxy-4-oxo-1,4-dihydropyridin-2-yl)-2-methylpropoxy)imine)acetamido)-2,2-dimethyl-4-oxoazetidine-1-hydrogen sulfate], the MIC in experiment [1] was 1 to 4 µg/mL; in experiment [2], less than 0.03 µg/mL; in experiment [3], 1 to 2 µg/mL; in [4] it was 1 to 2 µg/mL; in [5], 0.25 to 2 µg/mL; in experiment [6], 0.125 to 1 µg/mL. Besides, the MIC in experiment [7] is 0.5 to 1 µg/mL; in [8] it was 0.25 to 0.5 µg/mL; in [9], 0.06 to 1 µg/mL; in [10] it was less than 0.03 µg/mL. The “times more effective than BAL30072 in inhibitory activity against Klebsiella pneumonia” value in experiment [8] is 128-256 times.

Turning to `CO/N=C(\C(=O)N[C@@H]1C(=O)N2C(C(=O)O)=CCS[C@H]12)c1csc(N)n1` [ceftizoxime sodium, reference compound], the MIC in experiment [1] is 32 to 64 µg/mL; in experiment [2] it was 0.25 µg/mL; in experiment [3], 0.5 to 2 µg/mL; in [4] it was 32 to 64 µg/mL; in experiment [5], greater than 64 µg/mL.

The values above are taken from patent publication US10501454B2, “Monocyclic β-lactam-siderophore conjugate, and preparation method and use thereof” (Shanghai Institute of Materia Medica, Chinese Academy of …, priority 2016, dated 2019).
